Starred links: 1 amine or outer side, 2 acyl side, 3 side chain; linkers in the order of their positions; H or OH if unused. Positions of bridges follow the written chain, without caps; N, C: chain ends. Non-standard residues stand in square brackets, D forms with d. Residues, ends and D or L forms follow the SMILES beside them. Chains are numbered I, II in the order given. Actinocin(9to1) = Cc1c2oc3c(C)ccc(C(=O)[*:1])c3nc-2c(C(=O)[*:2])c(N)c1=O; NMeV = CN[C@H](C(=O)O)C(C)C; Sar = CNCC(=O)O

The test system of one experiment is lymphoma cells expressing shATM, shChk2 or shp53. The experiment can be described thus: shATM-Chk2-p53 resistance signature. It is filed as cell-based, mouse.
Settings: not given
How it is done: (3d) A comparison of the shTopoI and shTopoII response signatures for APG and NSC3852 with response signatures derived from established Topol (CPT and CPT11) and TopoII poisons (Dox, Mito and VP-16). […] In each case, one million cells were plated before treatment.
Eμ-Mycp19^Arf−/− cells were counted and seeded at 1 million cells per ml in 48-well plates and treated with various concentrations of drugs. To approximate therapeutic situations in which drug dose decreases over time, half of the volume from each experiment was removed and replenished with fresh medium every 24 h. Cells were analyzed by fluorescence-activated cell sorting (FACS), with propidium iodide as a viability marker. LD80-90 of drugs are defined as concentrations at which the lowest viability reading out of three FACS time points (24, 48 and 72 h) is between 10% and 20%. After drug dose was determined, Eμ-Mycp19^Arf−/− cells were infected with retroviruses encoding shRNAs targeting particular genes. Individual infected cell populations were counted and seeded at 1 million cells per ml in 48-well plates and treated with drugs using the aforementioned protocol. At 72 h, treated and untreated cells were analyzed by flow cytometry. GFP percentages of live (PI-negative) cells were recorded and used to calculate relative resistance index.
To compare the relative level of chemoresistance and sensitization conferred by each gene knockdown, the concept of RI (see definition above) was introduced, to more accurately analyze the GFP competition results. The value of RI is defined as X. The biological meaning of this factor X is that in a mixture of uninfected and infected (knockdown) cells, the infected (knockdown) cells will be X-fold as likely to survive drug treatment when compared to uninfected cells. By this definition of X, if one out of n uninfected cells survives a drug treatment, then X our of n infected cells should survive. If the total number of uninfected and infected cells are defined as T and the GFP percentage of untreated population are defined as G1, then the number of surviving, uninfected cells (un) can be defined as n−un=T×(1−G1)×1/n, and the number of surviving, infected cells (in) can be defined as n−in=Tx G1×X/n. […] From this equation, it can be derived that X=(G2−G1×G2)/(G1−G1×G2). This equation was used in the studies to compute RI values.
Regarding `COc1cccc2c1C(=O)c1c(O)c3c(c(O)c1C2=O)C[C@@](O)(C(=O)CO)C[C@@H]3O[C@H]1C[C@H](N)[C@H](O)[C@H](C)O1` [Doxorubicin], the shATM-Chk2-p53 resistance signature result is “significant resistance”.

Still in this experiment, the particulars now being: suppression of ATM, Chk2 and p53.
Take `N.N.[Cl][Pt][Cl]` [Cisplatin]: the shATM-Chk2-p53 resistance signature result was “significant resistance”.
Take `O=C(O)CCCc1ccc(N(CCCl)CCCl)cc1` [Chlorambucil]: the shATM-Chk2-p53 resistance signature entry is on record as “significant resistance”.
Same read-out and setting: the same measure for `CC[C@@]1(O)C(=O)OCc2c1cc1n(c2=O)Cc2cc3ccccc3nc2-1` [Camptothecin]: “significant resistance”.

A further experiment has as its system Eμ-Mycp19^Arf−/− lymphoma cells expressing shRNAs targeting the Bcl2 family, p53 and its activating kinases. The experiment is described as follows: 29-shRNA GFP competition assay, resistance index (RI), clustering and K-nearest-neighbors. It is filed as cell-based, mouse. Conditions: shRNA targeting Bim (Bim-dependence).
As to `Nc1ncn([C@H]2C[C@H](O)[C@@H](CO)O2)c(=O)n1` [Decitabine], the log2RI result is “≈ 2”.

Staying with this experiment, now noted: shRNA targeting p53 (p53-independence).
Consider `Nc1ncn([C@H]2C[C@H](O)[C@@H](CO)O2)c(=O)n1` [Decitabine], for which the log2RI entry is given as “≈ 0”.

Another experiment concerns Eμ-Mycp19^Arf−/− mouse lymphoma cells. The experiment can be described thus: Drug treatment and FACS viability (propidium iodide) to determine LD80-90. The class given is cell-based.
Settings: not given
Regarding `N.N.O=C([O-])C1(C(=O)[O-])CCC1.[Pt+2]` [Carboplatin], the “Concentration used (LD80-90)” value is 16.4 µM.

Staying with this experiment, now noted: Mus musculus, read-out: Concentration used (LD80-90).
Consider `S=P(N1CC1)(N1CC1)N1CC1` [ThioTEPA], for which the IC (80-90) worked out at 2.1 µM.

The experiment is the same for the next values; noted with them: Mus musculus; concentration at which 80-90% of uninfected lymphoma cells were killed; lowest viability of 24, 48 and 72 h between 10% and 20%; read-out: Concentration used (LD80-90).
`Cn1nnc2c(C(N)=O)ncn2c1=O` [Temozolomide]: the IC (80-90) came to 23.2 µM.
Same read-out and setting: the same measure for `CC[C@]1(O)C[C@H]2CN(CCc3c([nH]c4ccccc34)[C@@](C(=O)OC)(c3cc4c(cc3OC)N(C=O)[C@H]3[C@@](O)(C(=O)OC)[C@H](OC(C)=O)[C@]5(CC)C=CCN6CC[C@]43[C@@H]65)C2)C1` [Vincristine]: 0.0015 µM.
Same read-out and setting: then `Nc1ccn([C@@H]2O[C@H](CO)[C@@H](O)C2(F)F)c(=O)n1` [Gemcitabine], with 0.1 µM; and `COc1cc2ncnc(Nc3ccc(F)c(Cl)c3)c2cc1OCCCN1CCOCC1` [Gefitinib], with 12.5 µM.
Still for that read-out and setting: the same measure for `O=c1ncccn1[C@@H]1O[C@H](CO)[C@@H](O)[C@H]1O` [Zebularine]: 30 µM; for `CS(=O)(=O)N1CCN(Cc2cc3nc(-c4cccc5[nH]ncc45)nc(N4CCOCC4)c3s2)CC1` [GDC 0941]: 5.4 µM; for `CCN(CC)CCCCNc1ncc2cc(-c3cc(OC)cc(OC)c3)c(NC(=O)NC(C)(C)C)nc2n1` [PD 173074]: 4.2 µM.
On to `O=C(CCCCCN1C(=O)c2cccc3cccc(c23)C1=O)NO` [Scriptaid], for which the IC (80-90) turned out to be 0.5 µM.
On to `CN(Cc1cnc2nc(N)nc(N)c2n1)c1ccc(C(=O)N[C@@H](CCC(=O)O)C(=O)O)cc1` [Methotrexate], for which the IC (80-90) is 0.033 µM.
For `C#Cc1cccc(Nc2ncnc3cc(OCCOC)c(OCCOC)cc23)c1` [Erlotinib], the IC (80-90) stood at 6.5 µM.
On the same count and under the same terms, the same measure for `COc1c(C)cnc(Cn2cnc3c(Cl)nc(N)nc32)c1C` [BIIB021]: 0.79 µM.
Still for that read-out and setting: the same measure for `CN(N=O)C(=O)N[C@@H](C=O)[C@@H](O)[C@H](O)[C@H](O)CO` [Streptozocin]: 83 µM; for `CO[C@H]1C[C@@H]2CC[C@@H](C)[C@@](O)(O2)C(=O)C(=O)N2CCCC[C@H]2C(=O)O[C@H]([C@H](C)C[C@@H]2CC[C@@H](O)[C@H](OC)C2)CC(=O)[C@H](C)/C=C(\C)[C@@H](O)[C@@H](OC)C(=O)[C@H](C)C[C@H](C)/C=C/C=C/C=C/1C` [Rapamycin]: 15 µM.
Same read-out and setting: the same measure for `COc1ccc2c(c1OC)C(=O)O[C@@H]2[C@H]1c2c(cc3c(c2OC)OCO3)CCN1C` [Noscapine]: 58.1 µM; for `COc1cccc2c1C(=O)c1c(O)c3c(c(O)c1C2=O)C[C@@](O)(C(=O)CO)C[C@@H]3O[C@H]1C[C@H](N)[C@H](O)[C@H](C)O1` [Doxorubicin]: 0.0162 µM.
On to `O=c1[nH]cc(F)c(=O)[nH]1` [5-Fluorouracil], for which the IC (80-90) amounted to 0.0305 µM.
Same read-out and setting: then `Nc1ncn([C@H]2C[C@H](O)[C@@H](CO)O2)c(=O)n1` [Decitabine], with 0.6 µM; and `CS(=O)(=O)OCCCCOS(C)(=O)=O` [Busulfan], with 40.6 µM; and `Nc1nc2nc[nH]c2c(=S)[nH]1` [6-Thioguanine], with 0.054 µM.
On the same count and under the same terms, the same measure for `CCc1c2c(nc3ccc(OC(=O)N4CCC(N5CCCCC5)CC4)cc13)-c1cc3c(c(=O)n1C2)COC(=O)[C@]3(O)CC` [Irinotecan]: 2.1 µM; for `COc1cc([C@@H]2c3cc4c(cc3[C@@H](O[C@@H]3O[C@@H]5CO[C@@H](C)O[C@H]5[C@H](O)[C@H]3O)[C@H]3COC(=O)[C@H]23)OCO4)cc(OC)c1O` [Etoposide]: 0.034 µM; for `CC(=O)O[C@H]1C(=O)[C@@]2(C)[C@H]([C@H](OC(=O)c3ccccc3)[C@]3(O)C[C@H](OC(=O)[C@H](O)[C@@H](NC(=O)c4ccccc4)c4ccccc4)C(C)=C1C3(C)C)[C@]1(OC(C)=O)CO[C@@H]1C[C@@H]2O` [Paclitaxel]: 0.008 µM.
Same read-out and setting: then `NC(=O)NO` [Hydroxyurea], with 78 µM.
For `CC(C)C[C@H](NC(=O)[C@H](Cc1ccccc1)NC(=O)c1cnccn1)B(O)O` [Bortezomib], the IC (80-90) was 0.013 µM.
Consider `CC[C@]1(O)C[C@@H]2CN(CCc3c([nH]c4ccccc34)[C@@](C(=O)OC)(c3cc4c(cc3OC)N(C)[C@H]3[C@@](O)(C(=O)OC)[C@H](OC(C)=O)[C@]5(CC)C=CCN6CC[C@]43[C@@H]65)C2)C1` [Vinblastine], for which the IC (80-90) stood at 0.0025 µM.
Still for that read-out and setting: the same measure for `O=C1c2c(O)ccc(O)c2C(=O)c2c(NCCNCCO)ccc(NCCNCCO)c21` [Mitoxantrone]: 0.0004 µM.

Still in this experiment, the particulars now being: Mus musculus; read-out: Concentration used (LD80-90).
In the case of `Cn1c(CCCC(=O)O)nc2cc(N(CCCl)CCCl)ccc21` [Bendamustine], the IC (80-90) was 110 µM.
Same read-out and setting: then `N[C@@H](Cc1ccc(N(CCCl)CCCl)cc1)C(=O)O` [Melphalan], with 3.9 µM; and `COc1cccc2c1C(=O)c1c(O)c3c(c(O)c1C2=O)C[C@@](O)(C(C)=O)C[C@@H]3O[C@H]1C[C@H](N)[C@H](O)[C@H](C)O1` [Daunorubicin], with 0.0225 µM; and `Nc1nc(F)nc2c1ncn2[C@@H]1O[C@H](CO)[C@@H](O)[C@@H]1O` [Fludarabine], with 3.8 µM.
Still for that read-out and setting: then `O=C(O)CCCc1ccc(N(CCCl)CCCl)cc1` [Chlorambucil], with 6.6 µM; and `CC[C@H](C)[C@H](NC(=O)[C@H]([C@@H](C)CC)N(C)C(C)=O)C(=O)N[C@H](C(=O)N[C@@H](CC(C)C)C(=O)[C@@]1(C)CO1)[C@@H](C)O` [Epoxomicin], with 0.045 µM; and `C[C@@]12C(=O)OC(=O)[C@]1(C)[C@H]1CC[C@@H]2O1` [Cantharidin], with 10.7 µM.
On the same count and under the same terms, the same measure for `CC[C@@]1(O)C(=O)OCc2c1cc1n(c2=O)Cc2cc3ccccc3nc2-1` [Camptothecin]: 0.0004 µM; for `CC[C@H](CO)Nc1nc(NCc2ccccc2)c2ncn(C(C)C)c2n1` [Roscovitine]: 26.7 µM.
As for `CN1C(=O)[C@]23CC4=CC=C[C@H](O)[C@H]4N2C(=O)[C@@]1(CO)SS3` [Gliotoxin], the IC (80-90) was 0.3 µM.
Still for that read-out and setting: the same measure for `O=NN(CCCl)C(=O)NCCCl` [Carmustine]: 26.7 µM.

The experiment is the same for the next values; noted with them: concentration at which 80-90% of uninfected lymphoma cells were killed; lowest viability of 24, 48 and 72 h between 10% and 20%.
On to `N.N.[Cl][Pt][Cl]` [Cisplatin], for which the “Concentration used (LD80-90)” value is 3.3 µM.
With `O=C1C(=O)N(Cc2ccc(Cl)c(Cl)c2)c2ccccc21` [Apoptosis Activator 2], the “Concentration used (LD80-90)” value amounted to 1.9 µM.
On the same count and under the same terms, the same measure for `CCNC(=O)c1noc(-c2cc(Cl)c(O)cc2O)c1-c1ccc(OC)cc1` [VER-50589]: 0.16 µM.
On the same count and under the same terms, the same measure for `COc1cc2ncnc(Nc3cccc(Cl)c3)c2cc1OC` [AG1478]: 19 µM.
The same measure, in the same setting: the same measure for `COc1cc2c(cc1O)CC[C@@H]1[C@@H]2CC[C@]2(C)[C@@H](O)CC[C@@H]12` [2-Methoxyestradiol]: 1.8 µM; for `C=CCNC1=C2C[C@@H](C)C[C@H](OC)[C@H](O)[C@@H](C)/C=C(\C)[C@H](OC(N)=O)[C@@H](OC)/C=C\C=C(/C)C(=O)NC(=CC1=O)C2=O` [17 AAG]: 2.6 µM.

The experiment is the same for the next values; noted with them: figure legend 2c.
In turn, `Cn1c(CCCC(=O)O)nc2cc(N(CCCl)CCCl)ccc21` [Bendamustine] had an LD80-90 of 110 µM.

The experiment is the same for the next values; noted with them: read-out: Concentration used (LD80-90).
Take `Cc1c2oc3c(C)ccc(C(=O)N[C@@H]4C(=O)N[C@H](C(C)C)C(=O)N5CCC[C@H]5C(=O)N(C)CC(=O)N(C)[C@@H](C(C)C)C(=O)O[C@@H]4C)c3nc-2c(C(=O)N[C@@H]2C(=O)N[C@H](C(C)C)C(=O)N3CCC[C@H]3C(=O)N(C)CC(=O)N(C)[C@@H](C(C)C)C(=O)O[C@@H]2C)c(N)c1=O` [Actinomycin D] (I: T[dV]P[Sar][NMeV] / II: T[dV]P[Sar][NMeV]; ester I:1-I:C, II:1-II:C; linker I:N-II:N via Actinocin(9to1)): the IC (80-90) was 0.0012 µM.
Same read-out and setting: the same measure for `CO[C@@]12[C@H](COC(N)=O)C3=C(C(=O)C(C)=C(N)C3=O)N1C[C@@H]1N[C@@H]12` [Mitomycin C]: 0.09 µM.

(Values after patent US9683231B2, “RNAi-based method of drug screening and characterization” (Massachusetts Institute of Technology, priority 2010, dated 2017).)
